Test results taken from PMC6112376, “Comprehensive Analyses and Prioritization of Tox21 10K Chemicals Affecting Mitochondrial Function by in-Depth Mechanistic Studies” (Environmental Health Perspectives, 2018).
Where two headings read alike, the source gives them in different places.

Columns and labels:
rat primary hepatocytes [1] = test system: rat primary hepatocytes
HepG2 cells [2] = assay: Intracellular ATP content (cell viability) assay; format: cell-based, human; conditions: for IC50: Homo sapiens, HepG2, 40 h
HepG2 cells [3] = assay: cells; conditions: Homo sapiens; for Emax: HepG2, read-out: MMP assays efficacy (%) HepG2
[4] = test system: Caenorhabditis elegans strain PE255; assay: In vivo C. elegans ATP status assay; conditions: for effect on ATP content (in words): 0.5–100μM; for minimal effective concentration: Caenorhabditis elegans, read-out: LEC LUM: lowest effect concentration for luminescence, a measure of nematode ATP content
HepG2 cells [5] = assay: ROS-Glo hydrogen peroxide (ROS) assay; format: cell-based, human
[6] = test system: Caenorhabditis elegans (Bristol N2); assay: C. elegans larval development and growth assay; conditions: for effect on larval growth (in words): 0.5–100μM
[7] = test system: Nrf2/ARE (ARE-bla HepG2 cells); assay: ARE β-lactamase reporter gene assay; format: cell-based, human; conditions: 16 h incubation, mean±SD of three experiments
[8] = test system: isolated rat liver mitochondria; assay: Oxygen consumption, Clark-type oxygen electrode; format: biochemical
HepG2 cells [9] = conditions: cited from earlier work
rat primary hepatocytes [10] = assay: MMP assay in rat primary hepatocytes; conditions: Rattus norvegicus, Hepatocyte
[11] = test system: HeLa cells expressing YFP-Parkin; assay: Parkin translocation assay; format: cell-based, human
hNSC = assay: MMP assay in human neural stem cells (hNSC); format: cell-based; conditions: Homo sapiens, Neural stem cell, 1 h, read-out: hNSC IC50 (MMP)
[12] = test system: p53 (p53-bla HCT-116 cells); assay: p53 β-lactamase reporter gene assay; format: cell-based, human; conditions: 16 h incubation; mean±SD of three experiments
[13] = HepG2, 1 h, read-out: HepG2 IC50 Galactose (MMP)
[14] = HepG2, 1 h, read-out: HepG2 IC50 Glucose (MMP)
[15] = HepG2, read-out: MMP assays IC50 (µM) HepG2
[16] = 1 h, read-out: Rat hepatocytes IC50 (MMP)
[17] = read-out: MMP assays IC50 (µM) Rat Hepatocytes

## O=C(Nc1ccccc1)Nc1ccccc1 [Diphenylurea]
Rat primary hepatocytes [1]
  MMP assays efficacy (%) Rat Hepatocytes: -72±30%
  Rat hepatocytes (efficacy) (MMP): 15.4±2.88 ( −117±8.21 ) %
HepG2 cells [2]
  ATP (HepG2, galactose) IC50: Inactive
  ATP (HepG2, glucose) IC50: Inactive
HepG2 cells [3]; [13]
  IC50: 10.3 µM
HepG2 cells [3]; [14]
  IC50: 7.73 µM
HepG2 cells [3]; [15]
  IC50: 2.51 µM
HepG2 cells [3]
  Emax: 131%
[4]; 0.5 µM
  LUM: mean difference in luminescence (ATP content) relative to plate controls: 0.08612
[4]; 1 µM
  LUM: mean difference in luminescence (ATP content) relative to plate controls: 0.1632
[4]; 5 µM
  LUM: mean difference in luminescence (ATP content) relative to plate controls: 0.3729
[4]; 10 µM
  LUM: mean difference in luminescence (ATP content) relative to plate controls: 1.1516
[4]; 25 µM
  LUM: mean difference in luminescence (ATP content) relative to plate controls: 1.501
[4]; 50 µM
  LUM: mean difference in luminescence (ATP content) relative to plate controls: 1.222
[4]; 75 µM
  LUM: mean difference in luminescence (ATP content) relative to plate controls: 0.9702
[4]; 100 µM
  LUM: mean difference in luminescence (ATP content) relative to plate controls: 0.9744
[4]
  effect on ATP content (in words): statistically significant decreases in ATP content
  minimal effective concentration: 10 µM
HepG2 cells [5]
  ROS (HepG2) EC50: Inactive
[6]; 0.5 µM
  EXT: mean difference in nematode size relative to plate controls: 0.0636
[6]; 1 µM
  EXT: mean difference in nematode size relative to plate controls: 0.005834
[6]; 5 µM
  EXT: mean difference in nematode size relative to plate controls: -0.06608
[6]; 10 µM
  EXT: mean difference in nematode size relative to plate controls: 0.006337
[6]; 25 µM
  EXT: mean difference in nematode size relative to plate controls: 0.05471
[6]; 50 µM
  EXT: mean difference in nematode size relative to plate controls: 0.1792
[6]; 75 µM
  EXT: mean difference in nematode size relative to plate controls: 0.1069
[6]; 100 µM
  EXT: mean difference in nematode size relative to plate controls: 0.0228
[6]
  effect on larval growth (in words): did not affect growth
[7]
  ARE (HepG2) EC50: Inactive
[8]
  Potential Mechanism: Uncoupler at low concentrations (20 µM), and Uncoupler + inhibitor at high concentrations (100 µM)
[8]; 0.8 µM
  I-ADP, % of control (O2 consumption rate): 97 (36.2) % of control
  I-sub, % of control (O2 consumption rate): 105 (11.3) % of control
  II-ADP, % of control (O2 consumption rate): 91 (57.2) % of control
  II-sub, % of control (O2 consumption rate): 106 (19.6) % of control
[8]; 4 µM
  I-ADP, % of control (O2 consumption rate): 93 (34.6) % of control
  I-sub, % of control (O2 consumption rate): 104 (11.2) % of control
  II-ADP, % of control (O2 consumption rate): 83 (52.5) % of control
  II-sub, % of control (O2 consumption rate): 97 (18.0) % of control
[8]; 20 µM
  I-ADP, % of control (O2 consumption rate): 96 (35.6) % of control
  I-sub, % of control (O2 consumption rate): 144 (15.5) % of control
  II-ADP, % of control (O2 consumption rate): 91 (57.6) % of control
  II-sub, % of control (O2 consumption rate): 129 (23.9) % of control
[8]; 100 µM
  I-ADP, % of control (O2 consumption rate): 38 (19.1) % of control
  I-sub, % of control (O2 consumption rate): 167 (35.8) % of control
  II-ADP, % of control (O2 consumption rate): 25 (15.1) % of control
  II-sub, % of control (O2 consumption rate): 55 (19.1) % of control
HepG2 cells [9]
  MMP assays efficacy (%) qHTS-HepG2: -111±9%
HepG2 cells [9]; read-out: MMP assays IC50 (µM) qHTS-HepG2
  IC50: 1.6 ± 0.74 µM
Rat primary hepatocytes [10]; [16]
  IC50: 15.4 µM
Rat primary hepatocytes [10]; [17]
  IC50: 8.46 ± 2.39 µM
[11]
  Parkin recruitment: Inactive
hNSC
  IC50: 12.1 µM
[12]
  p53 (HCT-116) EC50: Inactive

## CO[C@H]1/C=C/O[C@@]2(C)Oc3c(C)c(O)c4c(O)c(c(/C=N/N5CCN(C6CCCC6)CC5)c(O)c4c3C2=O)NC(=O)/C(C)=C\C=C\[C@H](C)[C@H](O)[C@@H](C)[C@@H](O)[C@@H](C)[C@H](OC(C)=O)[C@@H]1C [Rifapentine, reference compound]
Rat primary hepatocytes [1]
  Rat hepatocytes (efficacy) (MMP): 5.94±1.48 ( −73.4±10.2 ) %
HepG2 cells [2]; read-out: ATP (HepG2, galactose) IC50
  IC50: 36 µM
HepG2 cells [2]; read-out: ATP (HepG2, glucose) IC50
  IC50: 43.4 µM
HepG2 cells [3]; [13]
  IC50: 17.7 µM
HepG2 cells [3]; [14]
  IC50: 13.9 µM
HepG2 cells [3]; [15]
  IC50: 3.88 µM
HepG2 cells [3]
  Emax: 101%
[4]
  effect on ATP content (in words): statistically significant decreases in ATP content
  minimal effective concentration: 100 µM
HepG2 cells [5]
  ROS (HepG2) EC50: Inactive
[6]
  effect on larval growth (in words): did not affect growth
[7]; Homo sapiens, HepG2, read-out: ARE (HepG2) EC50
  EC50: 29.3 ± 7.09 µM
[8]
  Potential Mechanism: Inactive
[8]; 4 µM
  I-ADP, % of control (O2 consumption rate): 88 (48.1) % of control
  I-sub, % of control (O2 consumption rate): 98 (12.8) % of control
  II-ADP, % of control (O2 consumption rate): 94 (82.6) % of control
  II-sub, % of control (O2 consumption rate): 92 (22.7) % of control
[8]; 20 µM
  I-ADP, % of control (O2 consumption rate): 86 (47.1) % of control
  I-sub, % of control (O2 consumption rate): 127 (16.7) % of control
  II-ADP, % of control (O2 consumption rate): 85 (75.2) % of control
  II-sub, % of control (O2 consumption rate): 101 (24.8) % of control
HepG2 cells [9]
  MMP assays efficacy (%) qHTS-HepG2: -104±16%
HepG2 cells [9]; read-out: MMP assays IC50 (µM), qHTS-HepG2
  IC50: 1.46 ± 0.26 µM
Rat primary hepatocytes [10]; [16]
  IC50: 5.94 µM
Rat primary hepatocytes [10]; [17]
  IC50: 0.62 ± 0.55 µM
[11]
  Parkin recruitment: Inactive
hNSC
  IC50: 8.07 µM
[12]
  p53 (HCT-116) EC50: Inactive
